Here are results for 78 compounds from the Kinase Knowledgebase extract (Sharma et al. 2016).

For the experiment, the target named is MAPK14 (human) (UniProt Q16539). As to the kind of experiment: Inhibition of MAPK14 Kinase Activity.
MAPK14 (human), sequence (Q16539 whole entry, looked up): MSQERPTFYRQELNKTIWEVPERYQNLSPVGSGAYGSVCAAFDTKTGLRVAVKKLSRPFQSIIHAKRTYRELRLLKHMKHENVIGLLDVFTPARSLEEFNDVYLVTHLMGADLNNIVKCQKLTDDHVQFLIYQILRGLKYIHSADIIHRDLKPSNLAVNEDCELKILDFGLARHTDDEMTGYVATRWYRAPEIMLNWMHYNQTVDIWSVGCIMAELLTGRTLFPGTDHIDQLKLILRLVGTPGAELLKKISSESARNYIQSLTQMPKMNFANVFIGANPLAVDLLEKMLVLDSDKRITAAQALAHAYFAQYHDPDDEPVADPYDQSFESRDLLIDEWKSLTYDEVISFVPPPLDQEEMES

On to `Cc1ccc(S(=O)(=O)NCCNC(=O)c2csc(-c3sc(C)nc3-c3ccc(F)cc3)n2)cc1`, for which the half-inhibitory concentration (IC50) is no more than 1000 nM.
Under `Cc1nc(-c2ccc(F)cc2)c(-c2nc(C(=O)NCCc3ccc4c(c3)OCO4)cs2)s1` stands no more than 1000 nM; under `CC(C)NC(=O)c1csc(-c2oc(CNCCC(C)(C)C)nc2-c2ccc(F)cc2)n1`, no more than 1000 nM; under `CC(C)NC(=O)c1csc(-c2oc(CN3CCN(C(=O)c4ccccc4C=O)CC3)nc2-c2ccc(F)cc2)n1`, no more than 1000 nM.
Compound `CC(C)NC(=O)c1csc(-c2oc(CN3CCN(C(=O)c4cc([N+](=O)[O-])ccc4Cl)CC3)nc2-c2ccc(F)cc2)n1` showed an IC50 of no more than 1000 nM.
As to `CC(C)NC(=O)c1csc(-c2oc(CNC(=O)c3cc(O)ccc3O)nc2-c2ccc(F)cc2)n1`, the IC50 is no more than 1000 nM.
Under `CC(=O)c1ccccc1C(=O)N1CCN(Cc2nc(-c3ccc(F)cc3)c(-c3nc(C(=O)NC(C)C)cs3)o2)CC1` stands no more than 1000 nM; under `Cc1nc(-c2ccc(F)cc2)c(-c2nc(C(=O)NCc3ccc4c(c3)OCO4)cs2)s1`, no more than 1000 nM; under `CC(C)NC(=O)c1csc(-c2oc(CN3CCN(C(=O)Cc4cccc(O)c4)CC3)nc2-c2ccc(F)cc2)n1`, no more than 1000 nM.
`CC(C)NC(=O)c1csc(-c2oc(CNC(=O)c3ccc(-c4ccc(O)cc4)cc3)nc2-c2ccc(F)cc2)n1`: the IC50 is no more than 1000 nM.
Under `CC(C)NC(=O)c1csc(-c2oc(CNC(=O)c3ccc(C(F)(F)F)cc3[N+](=O)[O-])nc2-c2ccc(F)cc2)n1` stands no more than 1000 nM; under `CC1=NN(c2ccc(C(=O)NCc3nc(-c4ccc(F)cc4)c(-c4nc(C(=O)NC(C)C)cs4)o3)cc2)C(=O)C1`, no more than 1000 nM; under `CC(C)NC(=O)c1csc(-c2oc(CN3CCN(C(=O)c4ncc[nH]4)CC3)nc2-c2ccc(F)cc2)n1`, no more than 1000 nM.
Under `Cc1nc(-c2ccc(F)cc2)c(-c2nc(C(=O)NCc3ccccc3OC(F)(F)F)cs2)s1` stands no more than 1000 nM.
To `Cc1nc(-c2ccc(F)cc2)c(-c2nc(C(=O)NCCc3c[nH]c4ccccc34)cs2)s1` belongs no more than 1000 nM.
`Cc1nc(-c2ccc(F)cc2)c(-c2nc(C(=O)NCCc3ccccc3F)cs2)s1` showed a half-inhibitory concentration (IC50) of no more than 1000 nM.
As for `Cc1onc(-c2ccc(Cl)cc2)c1-c1ccn(C(=O)NC2CCCC2)n1`, the IC50 was no more than 1000 nM.
In the case of `CC(C)NC(=O)c1csc(-c2oc(CNC(=O)c3ccc(Cl)nc3)nc2-c2ccc(F)cc2)n1`, the IC50 was no more than 1000 nM.
The compound `COCc1onc(-c2ccc(Cl)cc2)c1-c1ccn(C(=O)NC(C)C)n1` gave an IC50 of no more than 1000 nM.
Under `O=C(NCCO)c1csc(-c2c(-c3ccc(F)cc3)n[nH]c2C2CCNCC2)n1` stands no more than 1000 nM; under `Cc1ccc(S(=O)(=O)NCCNCc2nc(-c3ccc(F)cc3)c(-c3nc(C(=O)NC(C)C)cs3)o2)cc1`, no more than 1000 nM; under `CC(C)NC(=O)c1csc(-c2oc(CN3CCN(C(=O)c4cnc(O)c(Cl)c4)CC3)nc2-c2ccc(F)cc2)n1`, no more than 1000 nM.
As to `O=C(NC1CC1)c1csc(-c2c(-c3ccc(F)cc3)n[nH]c2C2CCNCC2)n1`, the IC50 was no more than 1000 nM.
`CC(C)NC(=O)c1csc(-c2oc(CN3CCN(C(=O)C=O)CC3)nc2-c2ccc(F)cc2)n1` returned an IC50 of no more than 1000 nM.
Consider `CCC(CO)NC(=O)c1csc(-c2c(-c3ccc(F)cc3)n[nH]c2C2CCNCC2)n1` (stereo not drawn), for which the 50% inhibitory concentration (IC50) is no more than 1000 nM.
To `CC(C)NC(=O)c1csc(-c2oc(CNC(=O)c3cscn3)nc2-c2ccc(F)cc2)n1` belongs no more than 1000 nM; to `COc1ccccc1C=CC(=O)N1CCN(Cc2nc(-c3ccc(F)cc3)c(-c3nc(C(=O)NC(C)C)cs3)o2)CC1`, no more than 1000 nM; to `Cc1ccc(F)cc1C(=O)NCc1nc(-c2ccc(F)cc2)c(-c2nc(C(=O)NC(C)C)cs2)o1`, no more than 1000 nM.
The compound `CC(C)NC(=O)c1csc(-c2oc(CNC(=O)c3ccncc3Cl)nc2-c2ccc(F)cc2)n1` registered a half-inhibitory concentration (IC50) of no more than 1000 nM.
Under `CC(C)NC(=O)c1csc(-c2c(-c3ccc(F)cc3)n[nH]c2C2CCN(C(=O)c3cc(O)ccc3[N+](=O)[O-])CC2)n1` stands no more than 1000 nM; under `CCN(CC)CCNC(=O)c1csc(-c2sc(C)nc2-c2ccc(F)cc2)n1`, no more than 1000 nM; under `CC(C)NC(=O)c1csc(-c2oc(CNC3CCN(Cc4ccccc4)C3)nc2-c2ccc(F)cc2)n1` (stereo not drawn), no more than 1000 nM.
Under `CC(C)NC(=O)c1csc(-c2oc(CN3CCN(C(=O)CCc4ccccc4O)CC3)nc2-c2ccc(F)cc2)n1` stands no more than 1000 nM; under `Cc1nc(-c2ccc(F)cc2)c(-c2nc(C(=O)NCCCNC(=O)OC(C)(C)C)cs2)s1`, no more than 1000 nM; under `CC(C)NC(=O)c1csc(-c2oc(CNC(=O)C3CCCCC3)nc2-c2ccc(F)cc2)n1`, no more than 1000 nM.
The compound `COc1ccc(CNC(=O)c2csc(-c3c(-c4ccc(F)cc4)n[nH]c3C3CCNCC3)n2)cc1O` had a concentration for half-maximal inhibition (IC50) of no more than 1000 nM.
Turning to `COc1cc2c(cc1OC)CN(C(=O)c1csc(-c3sc(C)nc3-c3ccc(F)cc3)n1)CC2`, the IC50 was no more than 1000 nM.
Under `CC(C)NC(=O)c1csc(-c2oc(CNC(=O)c3c(Cl)cc(Cl)cc3Cl)nc2-c2ccc(F)cc2)n1` stands no more than 1000 nM; under `Cc1nc(-c2ccc(F)cc2)c(-c2nc(C(=O)NC3CCC3)cs2)s1`, no more than 1000 nM.
`CC(C)NC(=O)c1csc(-c2oc(CNC(=O)c3cc([N+](=O)[O-])ccc3Cl)nc2-c2ccc(F)cc2)n1` showed a 50% inhibitory concentration (IC50) of no more than 1000 nM.
For `COCCNC(=O)c1csc(-c2c(-c3ccc(F)cc3)n[nH]c2C2CCNCC2)n1`, the IC50 was no more than 1000 nM.
Under `COC(=O)N1CCC(c2[nH]nc(-c3ccc(F)cc3)c2-c2nc(C(=O)NC(C)C)cs2)CC1` stands no more than 1000 nM.
To `CCOc1ccc2ccccc2c1C(=O)N1CCN(Cc2nc(-c3ccc(F)cc3)c(-c3nc(C(=O)NC(C)C)cs3)o2)CC1` belongs no more than 1000 nM.
Under `CC(C)NC(=O)c1csc(-c2oc(CNC(=O)C(O)CCl)nc2-c2ccc(F)cc2)n1` (stereo not drawn) stands no more than 1000 nM; under `Cc1cccc(CNC(=O)c2csc(-c3sc(C)nc3-c3ccc(F)cc3)n2)c1`, no more than 1000 nM; under `CCOc1ccccc1CNC(=O)c1csc(-c2sc(C)nc2-c2ccc(F)cc2)n1`, no more than 1000 nM.
For the compound `COCCNC(=O)c1csc(-c2sc(C)nc2-c2ccc(F)cc2)n1`, the half-inhibitory concentration (IC50) is no more than 1000 nM.
`CC(C)NC(=O)c1csc(-c2oc(CNC(=O)c3cccc(O)c3)nc2-c2ccc(F)cc2)n1` returned an IC50 of no more than 1000 nM.
`C#CCNC(=O)c1csc(-c2c(-c3ccc(F)cc3)ncn2C2CCNCC2)n1` gave a half-maximal inhibitory concentration (IC50) of no more than 1000 nM.
Under `CC(C)NC(=O)c1csc(-c2c(-c3ccc(F)cc3)n[nH]c2C2CCN(C(=O)C(C)(C)C)CC2)n1` stands no more than 1000 nM; under `CNC(=O)c1csc(-c2c(-c3ccc(F)cc3)n[nH]c2C2CCNCC2)n1`, no more than 1000 nM.
Under `Cc1nc(-c2ccc(F)cc2)c(-c2nc(C(=O)NCc3ccc(Cl)c(Cl)c3)cs2)s1` stands no more than 1000 nM; under `O=C(NCc1cccnc1)c1csc(-c2c(-c3ccc(F)cc3)n[nH]c2C2CCN(C(=O)CO)CC2)n1`, no more than 1000 nM; under `COc1ccc(C(=O)N2CCN(Cc3nc(-c4ccc(F)cc4)c(-c4nc(C(=O)NC(C)C)cs4)o3)CC2)c(O)c1`, no more than 1000 nM.
Under `Cc1[nH]nc(-c2ccc(F)cc2)c1-c1nc(C(=O)NCc2ccncc2)cs1` stands no more than 1000 nM; under `COc1ccccc1CC(=O)NCc1nc(-c2ccc(F)cc2)c(-c2nc(C(=O)NC(C)C)cs2)o1`, no more than 1000 nM.
`CC(CO)NC(=O)c1csc(-c2c(-c3ccc(F)cc3)n[nH]c2C2CCNCC2)n1` (stereo not drawn) had an IC50 of no more than 1000 nM.
`CC(C)NC(=O)c1csc(-c2c(-c3ccc(F)cc3)noc2CNCCN2CCCC2)n1` had an IC50 of no more than 1000 nM.
Turning to `Cc1nc(-c2ccc(F)cc2)c(-c2nc(C(=O)N3CCN(c4ccccc4C#N)CC3)cs2)s1`, the IC50 was no more than 1000 nM.
Turning to `CC(C)NC(=O)c1csc(-c2c(-c3ccc(F)cc3)noc2CNC(=O)C(O)CCl)n1` (stereo not drawn), the IC50 was no more than 1000 nM.
Under `CC(C)NC(=O)c1csc(-c2c(-c3ccc(F)cc3)n[nH]c2C2CCN(C(=O)c3ccnc(Cl)c3)CC2)n1` stands no more than 1000 nM; under `C#CCNC(=O)c1csc(-c2c(-c3ccc(F)cc3)n[nH]c2C2CCN(C(=O)CO)CC2)n1`, no more than 1000 nM.
The compound `Cc1c(C(=O)N2CCC(c3[nH]nc(-c4ccc(F)cc4)c3-c3nc(C(=O)NC(C)C)cs3)CC2)oc2ccccc12` yielded a half-maximal inhibitory concentration (IC50) of no more than 1000 nM.
`CC(=O)NC(Cc1ccc(O)cc1)C(=O)NCc1nc(-c2ccc(F)cc2)c(-c2nc(C(=O)NC(C)C)cs2)o1` (stereo not drawn): the half-inhibitory concentration (IC50) is no more than 1000 nM.
`CC(C)NC(=O)c1csc(-c2[nH][nH]c(=O)c2-c2ccc(F)cc2)n1` yielded a half-maximal inhibitory concentration (IC50) of no more than 1000 nM.
Regarding `C#CCNC(=O)c1csc(-c2[nH]c(CN3CCNCC3)nc2-c2ccc(F)cc2)n1`, the half-inhibitory concentration (IC50) was no more than 1000 nM.
Take `COc1cccc(O)c1C(=O)N1CCN(Cc2nc(-c3ccc(F)cc3)c(-c3nc(C(=O)NC(C)C)cs3)o2)CC1`: the half-maximal inhibitory concentration (IC50) is no more than 1000 nM.
Under `CC(C)NC(=O)c1csc(-c2oc(CN3CCN(C(=O)c4cc(F)c(F)cc4[N+](=O)[O-])CC3)nc2-c2ccc(F)cc2)n1` stands no more than 1000 nM; under `CC(C)NC(=O)c1csc(-c2oc(CNC(=O)c3ccc4cc(O)ccc4c3)nc2-c2ccc(F)cc2)n1`, no more than 1000 nM.
With `CC(C)NC(=O)c1csc(-c2c(-c3ccc(F)cc3)noc2CN2CCCC2CO)n1` (stereo not drawn), the IC50 was no more than 1000 nM.
Under `CC(C)NC(=O)c1csc(-c2oc(CN3CCN(C(=O)c4ccccc4-c4ccccc4)CC3)nc2-c2ccc(F)cc2)n1` stands no more than 1000 nM.
Consider `CC(C)NC(=O)c1csc(-c2oc(CN3CCN(C(=O)c4c(F)c(F)c(F)c(F)c4F)CC3)nc2-c2ccc(F)cc2)n1`, for which the half-inhibitory concentration (IC50) is no more than 1000 nM.
Under `Cc1nc(-c2ccc(F)cc2)c(-c2nc(C(=O)NCc3cccnc3)cs2)s1` stands no more than 1000 nM; under `CC(C)NC(=O)c1csc(-c2c(-c3ccc(F)cc3)n[nH]c2C2CCN(C(=O)C(C)(C)O)CC2)n1`, no more than 1000 nM; under `CC(C)NC(=O)c1csc(-c2oc(CN3CCN(C(=O)c4ccc(Cl)cc4O)CC3)nc2-c2ccc(F)cc2)n1`, no more than 1000 nM.
In turn, `Cc1nc(-c2ccc(F)cc2)c(-c2nc(C(=O)NCCc3ccc(Cl)cc3)cs2)s1` returned a half-inhibitory concentration (IC50) of no more than 1000 nM.
`Cc1ccc([N+](=O)[O-])c(C(=O)NCc2onc(-c3ccc(F)cc3)c2-c2nc(C(=O)NC(C)C)cs2)c1` yielded an IC50 of no more than 1000 nM.
To `Cc1nc(-c2ccc(F)cc2)c(-c2nc(C(=O)Nc3ccccc3-c3ccccc3)cs2)s1` belongs no more than 1000 nM.

The term IC50 denotes the concentration needed to halve the response being measured. Lower therefore signals higher potency.
